In ChEMBL document CHEMBL1154250, “Isolation and characterization of peptides from Momordica cochinchinensis seeds” (J Nat Prod, 2009):
Active and inactive are the calls of the source. The rule behind the calls is not given here. Positions of bridges follow the written chain, without caps; N, C: chain ends. Residues, ends and D or L forms follow the SMILES beside them.

Experiments:
[1] = Cytotoxicity against human NFF cells assessed as survivality at 2 uM after 3 days by SRB assay; type: cell-based; conditions: read-out: Survival
[2] = Toxicity in human erythrocytes assessed as hemolytic activity up to 50 uM after 1 hr; type: cell-based; conditions: erythrocyte
[3] = Inhibition of trypsin at 0.04 to 0.5 uM by UV-visible spectrophotometer
Helicoverpa armigera = test: Insecticidal activity against Helicoverpa armigera larvae assessed as decrease in weight at 0.825 umol after 96 hrs; type: functional, organism-based
MM96L [4] = test: Cytotoxicity against human MM96L cells assessed as survivality at 2 uM after 3 days by SRB assay; type: functional; conditions: 72 h, read-out: Survival
MM96L [5] = test: Cytotoxicity against human MM96L cells assessed as survivality at 1.3 uM after 3 days by SRB assay; type: functional; conditions: 72 h, read-out: Survival
[6] = Cytotoxicity against human NFF cells assessed as survivality at 1.3 uM after 3 days by SRB assay; type: cell-based; conditions: read-out: Survival

CC[C@H](C)[C@@H]1NC(=O)CNC(=O)[C@H](C(C)C)NC(=O)CNC(=O)[C@@H]2CCCN2C(=O)[C@H]([C@@H](C)O)NC(=O)[C@H](C(C)C)NC(=O)[C@H]([C@@H](C)O)NC(=O)[C@@H]2CCCN2C(=O)[C@H](Cc2c[nH]c3ccccc23)NC(=O)[C@@H]2CSSC[C@@H]3NC(=O)[C@H](CCC(N)=O)NC(=O)[C@H](CCCCN)NC(=O)CNC(=O)[C@H](CCC(=O)O)NC(=O)[C@@H](NC(=O)CN)CSSC[C@H](NC(=O)CNC(=O)CNC(=O)CNC(=O)[C@H](CSSC[C@@H](C(=O)N[C@@H](CO)C(=O)N[C@@H](CO)C(=O)N[C@@H](CO)C(=O)O)NC1=O)NC(=O)[C@H](CO)NC(=O)[C@H](CCCNC(=N)N)NC(=O)[C@H](Cc1ccccc1)NC(=O)[C@H](CC(C)C)NC(=O)CNC3=O)C(=O)N[C@@H](CCCNC(=N)N)C(=O)N2 [listing 1 of 2 here]
viability at 72 h, 2 µM [1]: 89%
Activity [2]: Non-toxic

CC[C@H](C)[C@@H]1NC(=O)CNC(=O)[C@H](C(C)C)NC(=O)CNC(=O)[C@@H]2CCCN2C(=O)[C@H]([C@@H](C)O)NC(=O)[C@H](C(C)C)NC(=O)[C@H]([C@@H](C)O)NC(=O)[C@@H]2CCCN2C(=O)[C@H](Cc2c[nH]c3ccccc23)NC(=O)[C@@H]2CSSC[C@@H]3NC(=O)[C@H](CCC(N)=O)NC(=O)[C@H](CCCCN)NC(=O)CNC(=O)[C@H](CCC(=O)O)NC(=O)[C@@H](NC(=O)CN)CSSC[C@H](NC(=O)CNC(=O)CNC(=O)CNC(=O)[C@H](CSSC[C@H](C(=O)N[C@@H](CO)C(=O)N[C@@H](CO)C(=O)N[C@@H](CO)C(=O)O)NC1=O)NC(=O)[C@H](CO)NC(=O)[C@H](CCCNC(=N)N)NC(=O)[C@H](Cc1ccccc1)NC(=O)[C@H](CC(C)C)NC(=O)CNC3=O)C(=O)N[C@@H](CCCNC(=N)N)C(=O)N2
inhibition [3]: inactive
Activity (Helicoverpa armigera): inactive

CC[C@H](C)[C@@H]1NC(=O)CNC(=O)[C@H](C(C)C)NC(=O)CNC(=O)[C@@H]2CCCN2C(=O)[C@H]([C@@H](C)O)NC(=O)[C@H](C(C)C)NC(=O)[C@H]([C@@H](C)O)NC(=O)[C@@H]2CCCN2C(=O)[C@H](Cc2c[nH]c3ccccc23)NC(=O)[C@@H]2CSSC[C@@H]3NC(=O)[C@H](CCC(N)=O)NC(=O)[C@H](CCCCN)NC(=O)CNC(=O)[C@H](CCC(=O)O)NC(=O)[C@@H](NC(=O)CN)CSSC[C@H](NC(=O)CNC(=O)CNC(=O)CNC(=O)[C@H](CSSC[C@@H](C(=O)N[C@@H](CO)C(=O)N[C@@H](CO)C(=O)N[C@@H](CO)C(=O)O)NC1=O)NC(=O)[C@H](CO)NC(=O)[C@H](CCCNC(=N)N)NC(=O)[C@H](Cc1ccccc1)NC(=O)[C@H](CC(C)C)NC(=O)CNC3=O)C(=O)N[C@@H](CCCNC(=N)N)C(=O)N2 [listing 2 of 2 here]
viability at 2 µM (MM96L [4]): 57%

CC[C@H](C)[C@@H]1NC(=O)CNC(=O)[C@H](C(C)C)NC(=O)CNC(=O)[C@@H]2CCCN2C(=O)[C@H]([C@@H](C)O)NC(=O)[C@H](C(C)C)NC(=O)[C@H]([C@@H](C)O)NC(=O)[C@@H]2CCCN2C(=O)[C@H](Cc2c[nH]c3ccccc23)NC(=O)[C@@H]2CSSC[C@@H]3NC(=O)[C@@H]4CCCN4C(=O)[C@H](CCCCN)NC(=O)CNC(=O)[C@H](CCC(=O)O)NC(=O)[C@@H](NC(=O)CN)CSSC[C@H](NC(=O)CNC(=O)CNC(=O)CNC(=O)[C@H](CSSC[C@@H](C(=O)N[C@@H](CO)C(=O)N[C@@H](CO)C(=O)N[C@@H](CO)C(=O)O)NC1=O)NC(=O)[C@H](CO)NC(=O)[C@H](CCCNC(=N)N)NC(=O)[C@H](Cc1ccccc1)NC(=O)[C@H](CC(C)C)NC(=O)CNC3=O)C(=O)N[C@@H](CCCNC(=N)N)C(=O)N2 (H-GCEGKPCGLFRSCGGGCRCWPTVTPGVGICSSS-OH; disulfide 2-17, 7-19, 13-30)
viability at 1.3 µM (MM96L [5]): 51%
viability at 72 h, 1.3 µM [6]: 86%
